24 compounds from patent US8148391B2 (Cephalon, Inc., priority 2006, dated 2012) can be followed below.

Assay [1] deals with T1, baculovirus-expressed ALK (Homo sapiens, UniProt Q9UM73).
T1 construct: host or cells: baculovirus expression system
Kind of assay: ALK Kinase Assay (ELISA-type, time-resolved fluorescence). The assay is classed as biochemical. The note with it: ALK kinase inhibition, 1 μM ATP (Km level); read-out: ALK Activity. The procedure, abridged:
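Wells were coated with phospholipase C-γ at 10 μg/mL in Tris-buffered saline. Adding 30 ng/ml enzyme started the reaction, which ran at 37° C for 15 minutes before Eu-N1 PT66 antibody detection. Percent inhibition versus log10 concentration gave IC50 by variable-slope fit.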
(In general: In an ELISA, binding on a coated surface is turned into a signal by an enzyme label.)

Assay [2] deals with T2, c-Met (cytoplasmic domain) (Homo sapiens, UniProt P08581).
T2 construct: 10 ng/mL c-Met (cytoplasmic domain, Invitrogen Corporation #PV3143); purchased Invitrogen Corporation PV3143
T2 sequence (P08581 956-1390 limits assumed): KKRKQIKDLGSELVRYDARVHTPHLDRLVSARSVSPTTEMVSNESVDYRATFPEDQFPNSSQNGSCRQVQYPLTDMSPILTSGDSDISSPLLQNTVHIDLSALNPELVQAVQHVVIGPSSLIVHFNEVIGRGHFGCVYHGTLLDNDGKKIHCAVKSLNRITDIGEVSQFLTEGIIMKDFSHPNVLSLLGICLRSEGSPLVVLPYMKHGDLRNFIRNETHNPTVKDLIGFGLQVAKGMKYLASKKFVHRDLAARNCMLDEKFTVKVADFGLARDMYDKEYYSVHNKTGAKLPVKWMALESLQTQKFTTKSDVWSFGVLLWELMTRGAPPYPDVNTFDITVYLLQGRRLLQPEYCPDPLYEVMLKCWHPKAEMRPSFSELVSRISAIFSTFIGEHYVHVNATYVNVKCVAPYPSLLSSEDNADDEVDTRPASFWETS
Kind of assay: c-Met Kinase Assay (same methods as for ALK, with modifications). The assay is classed as biochemical. The note with it: c-Met kinase inhibition, 1 μM ATP (Km level); read-out: cMet Activity. The procedure, abridged:
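IC50 values were fitted by variable-slope sigmoidal regression of percent inhibition against log compound concentration. Phosphorylation was read with Eu-N1 PT66 antibody after a 15 min, 37 °C reaction. The reaction was initiated with 10 ng/mL c-Met cytoplasmic domain on wells coated with 10 μg/mL PLC-γ in TBS.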

T1 sequence (Q9UM73 19-1620): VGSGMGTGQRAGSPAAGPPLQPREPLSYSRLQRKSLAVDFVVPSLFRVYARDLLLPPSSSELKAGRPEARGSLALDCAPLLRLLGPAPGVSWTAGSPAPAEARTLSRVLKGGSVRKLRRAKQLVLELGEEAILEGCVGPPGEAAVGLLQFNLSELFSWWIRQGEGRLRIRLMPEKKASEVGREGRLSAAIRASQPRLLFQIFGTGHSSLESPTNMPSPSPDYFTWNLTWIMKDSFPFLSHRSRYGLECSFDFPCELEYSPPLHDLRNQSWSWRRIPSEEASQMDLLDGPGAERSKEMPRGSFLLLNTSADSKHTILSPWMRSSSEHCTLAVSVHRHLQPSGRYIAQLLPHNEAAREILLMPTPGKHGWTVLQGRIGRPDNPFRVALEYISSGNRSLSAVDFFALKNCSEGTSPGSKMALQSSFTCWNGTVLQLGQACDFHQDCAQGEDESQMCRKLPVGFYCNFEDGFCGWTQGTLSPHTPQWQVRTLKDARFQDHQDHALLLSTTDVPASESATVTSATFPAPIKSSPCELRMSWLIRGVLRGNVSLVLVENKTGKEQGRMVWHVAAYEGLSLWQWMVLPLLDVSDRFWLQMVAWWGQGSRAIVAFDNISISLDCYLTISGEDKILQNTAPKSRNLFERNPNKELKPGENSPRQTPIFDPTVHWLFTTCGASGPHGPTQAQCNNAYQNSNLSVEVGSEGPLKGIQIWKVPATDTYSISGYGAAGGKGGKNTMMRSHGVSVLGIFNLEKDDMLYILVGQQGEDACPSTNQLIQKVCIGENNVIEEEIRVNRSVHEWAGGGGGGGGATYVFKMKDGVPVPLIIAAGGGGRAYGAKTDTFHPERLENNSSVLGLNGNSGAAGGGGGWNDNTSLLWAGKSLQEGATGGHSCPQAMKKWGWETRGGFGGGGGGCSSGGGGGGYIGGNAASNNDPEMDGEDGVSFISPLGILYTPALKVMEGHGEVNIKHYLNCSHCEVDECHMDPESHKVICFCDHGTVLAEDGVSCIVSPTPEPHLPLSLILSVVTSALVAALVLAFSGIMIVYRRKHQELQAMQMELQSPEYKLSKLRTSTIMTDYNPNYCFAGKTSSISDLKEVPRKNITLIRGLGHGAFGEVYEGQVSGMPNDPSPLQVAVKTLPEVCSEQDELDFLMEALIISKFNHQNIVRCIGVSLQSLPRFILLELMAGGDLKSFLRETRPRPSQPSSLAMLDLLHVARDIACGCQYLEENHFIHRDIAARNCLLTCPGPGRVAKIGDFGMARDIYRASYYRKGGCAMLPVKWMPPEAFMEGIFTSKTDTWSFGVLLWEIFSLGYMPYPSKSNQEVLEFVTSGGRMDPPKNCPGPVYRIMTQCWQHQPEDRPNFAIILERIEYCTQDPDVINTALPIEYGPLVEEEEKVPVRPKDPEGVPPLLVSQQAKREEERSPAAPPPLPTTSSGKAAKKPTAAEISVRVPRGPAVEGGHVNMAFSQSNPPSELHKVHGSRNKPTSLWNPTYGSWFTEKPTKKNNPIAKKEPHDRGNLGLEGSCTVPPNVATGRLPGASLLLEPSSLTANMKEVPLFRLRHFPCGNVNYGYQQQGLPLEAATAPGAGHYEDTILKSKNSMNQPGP

`CCN1CC2CCC(C1)c1cc(Nc3ncc(Cl)c(Nc4ccccc4C(=O)NC)n3)ccc12` (stereo not drawn) [Example 271, 2-[5-Chloro-2-(10-ethyl-10-aza-tricyclo[6.3.2.0*2,7*]trideca-2,4,6-trien-4-ylamino)-pyrimidin-4-ylamino]-N-methyl-benzamide]: the IC50 in assay [1] and in assay [2] was under 100 nM each time.
For the compound `CCN1CC2CCC(C1)c1cc(Nc3ncc(Cl)c(Nc4ccccc4S(=O)(=O)NC)n3)ccc12` (stereo not drawn) [Example 272, 2-[5-Chloro-2-(10-ethyl-10-aza-tricyclo[6.3.2.0*2,7*]trideca-2,4,6-trien-4-ylamino)-pyrimidin-4-ylamino]-N-methyl-benzenesulfonamide], the IC50 in assay [1] is under 100 nM; in assay [2], 100 to 1000 nM.
With `CNC(=O)c1ccccc1Nc1nc(Nc2ccc3c(c2)C2CCC3CN(C(C)C)C2)ncc1Cl` (stereo not drawn) [Example 273, 2-[5-Chloro-2-(10-isopropyl-10-aza-tricyclo[6.3.2.0*2,7*]trideca-2,4,6-trien-4-ylamino)-pyrimidin-4-ylamino]-N-methyl-benzamide], the IC50 in assay [1] and in assay [2] was under 100 nM in each case.
On to `CNS(=O)(=O)c1ccccc1Nc1nc(Nc2ccc3c(c2)C2CCC3CN(C(C)C)C2)ncc1Cl` (stereo not drawn) [Example 274, 2-[5-Chloro-2-(10-isopropyl-10-aza-tricyclo[6.3.2.0*2,7*]trideca-2,4,6-trien-4-ylamino)-pyrimidin-4-ylamino]-N-methyl-benzenesulfonamide], for which the IC50 in assay [1] and in assay [2] was under 100 nM each time.
Consider `CNS(=O)(=O)c1ccccc1Nc1nc(Nc2ccc3c(c2)C2CCC3CN(CC#N)C2)ncc1Cl` (stereo not drawn) [Example 275, 2-[5-Chloro-2-(10-cyanomethyl-10-aza-tricyclo[6.3.2.0*2,7*]trideca-2,4,6-trien-4-ylamino)-pyrimidin-4-ylamino]-N-methyl-benzenesulfonamide], for which the IC50 in assay [1] and in assay [2] was under 100 nM in each case.
Turning to `CNC(=O)c1ccccc1Nc1nc(Nc2ccc3c(c2)C2CCC3CN(C(=O)C(F)(F)F)C2)ncc1Cl` (stereo not drawn) [Example 276, 2-{5-Chloro-2-[10-(2,2,2-trifluoro-acetyl)-10-aza-tricyclo[6.3.2.0*2,7*]trideca-2,4,6-trien-4-ylamino]-pyrimidin-4-ylamino}-N-methyl-benzamide], the values for the IC50 in assay [1] and in assay [2] were 100 to 1000 nM and under 100 nM, respectively.
As for `CNC(=O)c1ccccc1Nc1nc(Nc2ccc3c(c2)C2CCC3CNC2)ncc1Cl` (stereo not drawn) [Example 277, 2-[2-(10-Aza-tricyclo[6.3.2.0*2,7*]trideca-2,4,6-trien-4-ylamino)-5-chloro-pyrimidin-4-ylamino]-N-methyl-benzamide], the IC50 in assay [1] and in assay [2] was under 100 nM in each case.
Take `CNC(=O)c1ccccc1Nc1nc(Nc2ccc3c(c2)C2CCC3CN(S(C)(=O)=O)C2)ncc1Cl` (stereo not drawn) [Example 278, 2-[5-Chloro-2-(10-methanesulfonyl-10-aza-tricyclo[6.3.2.0*2,7*]trideca-2,4,6-trien-4-ylamino)-pyrimidin-4-ylamino]-N-methyl-benzamide]: the IC50 in assay [1] and in assay [2] was under 100 nM throughout.
For `C#CCN1CC2CCC(C1)c1cc(Nc3ncc(Cl)c(Nc4ccccc4C(=O)NC)n3)ccc12` (stereo not drawn) [Example 279, 2-[5-Chloro-2-(10-prop-2-ynyl-10-aza-tricyclo[6.3.2.0*2,7*]trideca-2,4,6-trien-4-ylamino)-pyrimidin-4-ylamino]-N-methyl-benzamide], the IC50 in assay [1] and in assay [2] was under 100 nM throughout.
For the compound `CNC(=O)c1ccccc1Nc1nc(Nc2ccc3c(c2)C2CCC3CN(CCF)C2)ncc1Cl` (stereo not drawn) [Example 280, 2-{5-Chloro-2-[10-(2-fluoro-ethyl)-10-aza-tricyclo[6.3.2.0*2,7*]trideca-2,4,6-trien-4-ylamino]-pyrimidin-4-ylamino}-N-methyl-benzamide], the IC50 in assay [1] and in assay [2] was under 100 nM throughout.
Regarding `CNC(=O)c1ccccc1Nc1nc(Nc2ccc3c(c2)C2CCC3CN(CC#N)C2)ncc1Cl` (stereo not drawn) [Example 281, 2-[5-Chloro-2-(10-cyanomethyl-10-aza-tricyclo[6.3.2.0*2,7*]trideca-2,4,6-trien-4-ylamino)-pyrimidin-4-ylamino]-N-methyl-benzamide], the IC50 in assay [1] and in assay [2] was under 100 nM throughout.
With `CNC(=O)c1ccccc1Nc1nc(Nc2ccc3c(c2)C2CCC3CN(CCOC)C2)ncc1Cl` (stereo not drawn) [Example 282, 2-{5-Chloro-2-[10-(2-methoxy-ethyl)-10-aza-tricyclo[6.3.2.0*2,7*]trideca-2,4,6-trien-4-ylamino]-pyrimidin-4-ylamino}-N-methyl-benzamide], the IC50 in assay [1] and in assay [2] was under 100 nM throughout.
On to `CNC(=O)c1ccccc1Nc1nc(Nc2ccc3c(c2)C2CCC3CN(C(C)=O)C2)ncc1Cl` (stereo not drawn) [Example 283, 2-[2-(10-Acetyl-10-aza-tricyclo[6.3.2.0*2,7*]trideca-2,4,6-trien-4-ylamino)-5-chloro-pyrimidin-4-ylamino]-N-methyl-benzamide], for which the IC50 in assay [1] and in assay [2] was under 100 nM throughout.
As to `CNS(=O)(=O)c1ccccc1Nc1nc(Nc2ccc3c(c2)C2CCC3CN(C(=O)C(F)(F)F)C2)ncc1Cl` (stereo not drawn) [Example 284, 2-{5-Chloro-2-[10-(2,2,2-trifluoro-acetyl)-10-aza-tricyclo[6.3.2.0*2,7*]trideca-2,4,6-trien-4-ylamino]-pyrimidin-4-ylamino}-N-methyl-benzenesulfonamide], the IC50 is under 100 nM in assay [1] and 100 to 1000 nM in assay [2].
On to `CNS(=O)(=O)c1ccccc1Nc1nc(Nc2ccc3c(c2)C2CCC3CNC2)ncc1Cl` (stereo not drawn) [Example 285, 2-[2-(10-Aza-tricyclo[6.3.2.0*2,7*]trideca-2,4,6-trien-4-ylamino)-5-chloro-pyrimidin-4-ylamino]-N-methyl-benzenesulfonamide], for which the IC50 in assay [1] and in assay [2] was under 100 nM each time.
`CNS(=O)(=O)c1ccccc1Nc1nc(Nc2ccc3c(c2)C2CCC3CN(S(C)(=O)=O)C2)ncc1Cl` (stereo not drawn) [Example 286, 2-[5-Chloro-2-(10-methanesulfonyl-10-aza-tricyclo[6.3.2.0*2,7*]trideca-2,4,6-trien-4-ylamino)-pyrimidin-4-ylamino]-N-methyl-benzenesulfonamide]: the IC50 in assay [1] and in assay [2] was under 100 nM each time.
As to `C#CCN1CC2CCC(C1)c1cc(Nc3ncc(Cl)c(Nc4ccccc4S(=O)(=O)NC)n3)ccc12` (stereo not drawn) [Example 287, 2-[5-Chloro-2-(10-prop-2-ynyl-10-aza-tricyclo[6.3.2.0*2,7*]trideca-2,4,6-trien-4-ylamino)-pyrimidin-4-ylamino]-N-methyl-benzenesulfonamide], the IC50 in assay [1] was under 100 nM; in assay [2], 100 to 1000 nM.
In the case of `C#CCN1CC2CCC(C1)c1cc(Nc3ncc(Cl)c(Nc4ccccc4S(=O)(=O)N(C)CC#C)n3)ccc12` (stereo not drawn) [Example 288, 2-[5-Chloro-2-(10-prop-2-ynyl-10-aza-tricyclo[6.3.2.0*2,7*]trideca-2,4,6-trien-4-ylamino)-pyrimidin-4-ylamino]-N-methyl-N-prop-2-ynyl-benzenesulfonamide], the IC50 is under 100 nM in assay [1] and 100 to 1000 nM in assay [2].
On to `CNS(=O)(=O)c1ccccc1Nc1nc(Nc2ccc3c(c2)C2CCC3CN(C(C)=O)C2)ncc1Cl` (stereo not drawn) [Example 289, 2-[2-(10-Acetyl-10-aza-tricyclo[6.3.2.0*2,7*]trideca-2,4,6-trien-4-ylamino)-5-chloro-pyrimidin-4-ylamino]-N-methyl-benzenesulfonamide], for which the values for the IC50 in assay [1] and in assay [2] were under 100 nM and 100 to 1000 nM, respectively.
Turning to `COc1cc(N2CCOCC2)ccc1Nc1nc(Nc2ccc3c(c2)C2CCC3CN(C(=O)C(F)(F)F)C2)ncc1Cl` (stereo not drawn) [Example 290, 2-{4-[5-Chloro-4-(2-methoxy-4-morpholin-4-yl-phenylamino)-pyrimidin-2-ylamino]-10-aza-tricyclo[6.3.2.0*2,7*]trideca-2,4,6-trien-10-yl}-2,2,2-trifluoro-ethanone], the IC50 in assay [1] is 100 to 1000 nM; in assay [2], over 10000 nM.
Regarding `CS(=O)(=O)Nc1ccccc1Nc1nc(Nc2ccc3c(c2)C2CCC3CN(C(=O)C(F)(F)F)C2)ncc1Cl` (stereo not drawn) [Example 291, N-(2-{5-Chloro-2-[10-(2,2,2-trifluoro-acetyl)-10-aza-tricyclo[6.3.2.0*2,7*]trideca-2,4,6-trien-4-ylamino]-pyrimidin-4-ylamino}-phenyl)-methanesulfonamide], the IC50 was under 100 nM in assay [1] and 1000 to 10000 nM in assay [2].
With `CS(=O)(=O)N[C@@H]1CCCC[C@H]1Nc1nc(Nc2ccc3c(c2)C2CCC3CNC2)ncc1Cl` (stereo partly drawn) [Example 293, N-{(1R,2R)-2-[2-(10-Aza-tricyclo[6.3.2.0*2,7*]trideca-2,4,6-trien-4-ylamino)-5-chloro-pyrimidin-4-ylamino]-cyclohexyl}-methanesulfonamide], the IC50 is under 100 nM in assay [1] and 1000 to 10000 nM in assay [2].
For `CS(=O)(=O)N[C@@H]1CCCC[C@H]1Nc1nc(Nc2ccc3c(c2)C2CCC3CN(S(C)(=O)=O)C2)ncc1Cl` (stereo partly drawn) [Example 294, N-{(1R,2R)-2-[5-Chloro-2-(10-methanesulfonyl-10-aza-tricyclo[6.3.2.0*2,7*]trideca-2,4,6-trien-4-ylamino)-pyrimidin-4-ylamino]-cyclohexyl}-methanesulfonamide], in that order: under 100 nM and 100 to 1000 nM.
`CC(=O)N1CC2CCC(C1)c1cc(Nc3ncc(Cl)c(N[C@@H]4CCCC[C@H]4NS(C)(=O)=O)n3)ccc12` (stereo partly drawn) [Example 295, N-{(1R,2R)-2-[2-(10-Acetyl-10-aza-tricyclo[6.3.2.0*2,7*]trideca-2,4,6-trien-4-ylamino)-5-chloro-pyrimidin-4-ylamino]-cyclohexyl}-methanesulfonamide]: the IC50 in assay [1] is under 100 nM; in assay [2] it was 100 to 1000 nM.
